One assay deals with THP-1 cells. The assay is described as follows: Cell viability assay (resazurin), THP-1. Format: cell-based. As to conditions: Homo sapiens, THP-1, 72 h; read-out: IC50 anti-proliferative activity THP-1. The procedure: (§1) The AML cell lines MV4-11, THP-1, KASUMI-1 and HL-60 were purchased from Procell Life Science & Technology Co., Ltd. (Wuhan, China). THP-1 and KASUMI-1 were cultured in RPMI-1640 complete medium containing 10% fetal bovine serum and 1% penicillin and streptomycin. MV4-11 was cultured in IMDM complete medium containing 10% fetal bovine serum and 1% penicillin and streptomycin. HL-60 was cultured in IMDM complete medium containing 20% fetal bovine serum and 1% penicillin and streptomycin. All cell lines were cultured in an incubator with humidity set at 95%, temperature at 37 °C and 5% CO2.
(§2) MV4-11, THP-1, KASUMI-1 and HL-60 cells were plated in 96-well transparent plates (10,000 to 15,000 cells/100 μL) and after incubation overnight, cells were treated with gradient-diluted inhibitors with several concentrations. After the cells were incubated with inhibitors for 72 h, 1 mg/mL of Resazurin (Sigma-Aldrich, Saint Louis, MO, USA) was added (working concentration was 0.1 mg/mL). After incubation at 37 °C for about 3 h, the fluorescence intensity of […] was measured at 560 nm/590 nm (excitation/emission) with a Spectra Max i3 Microplate Reader, and the cell viability was determined. The IC50 curve was drawn using GraphPad Prism 9.5 software.
A general note: The colour change of resazurin is a common sign of viable cells or microbes.

A further assay has as its system HL-60 cells. The assay is described as follows: Cell viability assay (resazurin), HL-60. Format: cell-based. As to conditions: Homo sapiens, HL-60, 72 h; read-out: IC50 anti-proliferative activity HL-60. The procedure:
as §1, §2

Turning to `CCCNNC(=O)C=Cc1ccc(CNCCc2ccccc2)cc1` [Compound 25c, 3-(4-((Phenethylamino)methyl)phenyl)-N′-propylacrylohydrazide], the IC50 in the assay with THP-1 cells came to 392 ± 60.5 nM; in the assay on HL-60 cells, 480 ± 177 nM.

The term IC50 denotes the midpoint of a concentration-inhibition curve.
